Results published in patent US20130183459A1, “DEVICE AND METHOD FOR I[…] AND COUNTING MICROBES AND DETERMINING ANTIMICROBIAL SENSITIVITY” (priority 2011, published 2013).

Tested on: E. Coli B
Test: Antimicrobial sensitivity test by resistance signature (pulsed-voltage sampling)
Assay type: cell-based
Conditions: 0.9 mL of 10^3 CFU/mL E. Coli B in LB Broth + 0.1 mL antibiotic, room temperature; control slope remains negative; FIGS. 7A-7D
Experimental: FIGS. 7A-7D depict signatures of microbial sample of 0.9 mL of a concentration of 10^3 CFU/mL of two-hour E. Coli B treated with 0.1 mL of antibiotics or antimicrobials and control samples in the absence thereof. What is common to all FIGS. 7A-7D is the slope for signatures with antibiotics or antimicrobials become positive, i.e., the resistance of the microbial sample increases, upon addition of the antibiotic or antimicrobial. The slope of the control samples remains negative.
In further detail, a difference in the degree of the slope change for the signature can be observed. Such differences are due to the type of antibiotic or antimicrobial, and its mechanism of action. For example, sulfamethoxazole, FIG. 7C, causes inhibition of DNA synthesis in the cell, thereby aiming essential cell functions. In contrast, azithromycin, FIG. 7B, inhibits […] in a bacterium, thereby acting on latent cell functions.
An overnight bacterial culture of E. coli B with a concentration of around 10^9 cells which had attained room temperature were diluted using LB Broth which had also attained room temperature to a final concentration of 10^3 cells. 0.9 ml of this solution was then placed into one sensor well which was connected to lead #1 of a reader unit. An additional 0.9 ml of the bacteria was placed into a second sensor well which was connected to lead #2 of a reader unit. […]

Compound: Cc1cc(NS(=O)(=O)c2ccc(N)cc2)no1 [sulfamethoxazole]
- slope of the resistance signature upon addition of the antibiotic or antimicrobial: steeper than for azithromycin
